In ChEMBL document CHEMBL1157093, “Lactonecembranoids from Croton laevigatus” (J Nat Prod, 2010):

Test system: HeLa; call rule not given here
Assay: Antiproliferative activity against human HeLa cells by MTT assay
Assay type: functional, cell-based

Row | SMILES | IC50 (hela) | IC50 (Homo sapiens, HeLa, read-out: IC50)
1 | CC(C)[C@@]12/C=C/[C@@](C)(O)C/C=C/[C@](C)(OO)CC/C=C(\CC1)C(=O)O2 (relative stereo) [LAEVIGATLACTONE F] | Not Active | –
2 | C/C1=C\CC[C@](C)(O)/C=C/[C@]2(C(C)C)CC/C(=C\CC1)C(=O)O2 (relative stereo) [LAEVIGATLACTONE C] | Not Active | –
3 | C/C1=C\CC[C@@](C)(O)/C=C/[C@]2(C(C)C)CC/C(=C\CC1)C(=O)O2 (relative stereo) [LAEVIGATLACTONE A] | Not Active | –
4 | CC(C)[C@@]12/C=C/[C@@](C)(O)C/C=C/[C@](C)(O)CC/C=C(\CC1)C(=O)O2 (relative stereo) [LAEVIGATLACTONE E] | Not Active | –
5 | C/C1=C\C=C(\C(C)C)CC/C(C(=O)O)=C\CC/C(C)=C/CC1 [NEOCROTOCEMBRANEIC ACID] | Not Active | –
6 | C/C1=C\CC/C(C)=C/[C@@H](O)[C@]2(C(C)C)CC/C(=C\CC1)C(=O)O2 (relative stereo) [LAEVIGATLACTONE D] | Not Active | –
7 | C/C1=C\CC[C@](C)(O)/C=C/[C@]2(C(C)C)CC/C(=C/CC1)C(=O)O2 (relative stereo) [LAEVIGATLACTON B] | – | 38.4 µM
